Measurements reported in patent US20120171123A1, “USES AND COMPOSITIONS FOR TREATMENT OF RHEUMATOID ARTHRITIS” (priority 2006, published 2012).
“And” between values parts separate entries of the source, which are not always exact repeats. Identical values can stand only once. Marks after values point to notes of the source that are not given here.

What was measured:
Format in all cases: in vivo, human
[1] = test system: patients with long-standing RA who had inadequate responses to MTX; test: Study 1: ACR20/50/70 response
Method: (§1) Patients were grouped into three cohorts based on baseline CRP concentrations: low (<1 mg/dL); intermediate (1-4 mg/dL); and high (>4 mg/dL). Analyses were further conducted in two categories of patients according to their change in CRP concentrations at Week 12: those with a ≧20% decrease in CRP from baseline; or those with a <20% decrease in CRP from baseline. The following efficacy and radiographic measures were analyzed at Week 52 in the three baseline CRP categories and in the two Week 12 change in CRP categories: DAS28, ACR 20/50/70, Health assessment questionnaire (HAQ), and Total Sharp score (TSS).
(§2) Two readers assessed X-rays performed at baseline (start of RCT), 1 year (end of RCT), and 3 years (post 2 years OLE). Changes from baseline in Total Sharp Score (TSS), Joint Erosions (JE), and Joint Space Narrowing (JSN) were calculated. ACR 20, 50, and 70 response rates, as well as TJC and SJC, were also measured.

[2] = test system: MTX-naïve adult patients with early RA (<3 years); test: Study J: escalation of injectable medicine from eow to weekly dosing; details: for ACR20 following dosage escalation, % of all patients in arm / ACR70 following dosage escalation, % of all patients in arm / DAS28 < 2.6 following dosage escalation, % of all patients in arm / ACR60 following dosage escalation, % of all patients in arm: patients with no prior ACR20 response, NRI; for ACR50, % of responders / ACR70, % of responders: patients whose dosages of adalimumab or placebo injections were escalated; for patients who increased injectable medication to weekly: during year 1 (placebo injections in MTX arm)
Method: Study J was a 2-year, double-blind, active comparator-controlled, Phase III study. […] In patients receiving ADA+MTX or MTX monotherapy, the 7.5 mg MTX weekly dosage increased to 20 mg over 8 weeks, as tolerated and as needed. Monotherapy patients received either placebo pills (adalimumab arm) or placebo injections (MTX arm). Efficacy outcomes measured included ACR response, DAS28 remission, major clinical response, and radiographic change from baseline.
MTX optimization was required before starting weekly injections (to 20 mg weekly, maximum). Once initiated, weekly dosing of injectable medicine was to be maintained until end of study. Criteria for identification of dosage escalators were a sequence of 4 consecutive injections for which the interval for every two consecutive injections was ≦10 days, and/or that the date of escalation, defined as the second of the 4 injections, had to be on or after Week 16 in Year 1. Three dosage escalator categories were defined, based on best ACR response rate achieved any time prior to escalation: Group A=ACR non-responders (never achieved ACR20 prior to dosage escalation), Group B=Partial responders (achieved ACR20 or ACR50 at least once prior to escalation, but never ACR70), and Group C=ACR70 responders (achieved ACR70 at least once prior to escalation). Data are from the intention-to-treat (ITT) population, with missing data analyzed by non-responder imputation (NRI) for clinical measures and by linear imputation for total Sharp scores (TSS).

[3] = test system: MTX-naïve adult patients with active, early RA (<3 years); test: Study J (adalimumab 40 mg eow + MTX vs adalimumab alone vs MTX alone, 2 years): ACR20/50/70/90 response and Major Clinical Response; details: for Major Clinical Response (ACR70 for ≧6 continuous months): over 2 years
Method: This study was a 2-year, double-blind, active-comparator-controlled Phase III study conducted at 149 sites in North America, Europe, and Australia. […] MTX-naïve adult patients with active, early RA (<3 years) were included in the study. Further inclusion criteria included: SJC≧8 and TJC≧10; ESR≧28 mm/hr or CRP≧1.5 mg/dL; and RF-positivity or at least one joint erosion. […] MTX dosages were rapidly optimized to a maximum of 20 mg weekly.
The co-primary endpoints, comparing MTX alone with the combination at 1 year, were the ACR50 response (using non-responder imputation), and inhibition of radiographic progression, as measured by change in total Sharp score (TSS). In this study, the term “Major Clinical Response” (MCR) meant a continuous ACR70 response for 6 or more consecutive months.
The results of this study were evaluated using multiple criteria for clinical remission. This study (Study J) was a 2-year, double-blind, Phase III study.
Secondary endpoints included DAS28<2.6 at year 1 and Major Clinical Response (MCR=ACR70 response for ≧6 continuous months during a 2-year period).
Study J was a 2-year, double-blind, Phase III study. […] MTX dosages were rapidly optimized to a maximum of 20 mg weekly. Mean changes in total Sharp score (TSS) were measured for patients who achieved American College of Rheumatology (ACR) response (ACR20, ACR50, and ACR70), as well as clinical remission by Disease Activity Score 28 (DAS28<2.6).
At 1 and 2 years, the American College of Rheumatology (ACR) responses (ACR20, ACR50, and ACR70), the Disease Activity Score 28 (DAS28), and the change (Δ) in Total Sharp Score (TSS) were determined for all patients. Results were analyzed for the intention-to-treat (ITT) population using imputation for missing data. Clinical remission was defined as DAS28<2.6. The mean ΔTSS values at 1 year and 2 years (N=791) were determined for patients in each ACR response category (ACR20/50/70) and for patients with DAS28<2.6
Patients in the Ada+MTX and the MTX arms were classified according to level of clinical response (non-responder (<ACR20), ACR20, ACR50, or ACR70) and radiographic progression (Yes or No (ΔTSS≦0.5)). The ΔTSS was analyzed overall, and for ACR subgroups. This included determination of mean ΔTSS and probability plots. Analyses used observed data from patients completing 6 months or 2 years of treatment (no imputation).

[4] = test system: patients with long-standing RA who had inadequate responses to MTX; test: Study 1 (adalimumab + MTX vs placebo + MTX, 12-month RCT plus OLE): radiographic progression (TSS, JE, JSN)
Method: The study design included a 12 month, double blind, randomized, placebo-controlled trial.
as §1, §2

[5] = week 52, baseline CRP 1-4 mg/dL
[6] = 6 months, completers, observed data
[7] = week 52 (1 year), non-responder imputation
[8] = 3 years, initially randomized to 40 mg eow

CN(Cc1cnc2nc(N)nc(N)c2n1)c1ccc(C(=O)N[C@@H](CCC(=O)O)C(=O)O)cc1 [mtx alone, methotrexate]
ACR20 [1, 5]: 36 % responders | ACR50 [1, 5]: 18 % responders | ACR70 [1, 5]: 9 % responders | ACR20 ([1]; week 52, baseline CRP <1 mg/dL): 30 % responders | ACR50 ([1]; week 52, baseline CRP <1 mg/dL): 13 % responders | ACR70 ([1]; week 52, baseline CRP <1 mg/dL): 6 % responders | ACR20 ([1]; week 52, baseline CRP >4 mg/dL): 47 % responders | ACR50 ([1]; week 52, baseline CRP >4 mg/dL): 0 % responders | ACR70 ([1]; week 52, baseline CRP >4 mg/dL): 0 % responders | ACR20 following dosage escalation, % of all patients in arm ([2]; 1 year): 3.5% | ACR70 following dosage escalation, % of all patients in arm ([2]; 1 year): 0.8% | DAS28 < 2.6 following dosage escalation, % of all patients in arm ([2]; 1 year): 0.0% | No radiographic progression, % of patients ([2]; 2 years, eow dosing): 36.6% | ACR20 following dosage escalation, % of all patients in arm ([2]; 2 years): 3.6% | ACR70 following dosage escalation, % of all patients in arm ([2]; 2 years): 1.2% | DAS28 < 2.6 following dosage escalation, % of all patients in arm ([2]; 2 years): 0.8% | No radiographic progression, % of patients ([2]; 2 years, weekly dosing): 21.2% | ACR50, % of responders ([2]; Year 1): 17% | ACR70, % of responders ([2]; Year 1): 8% | ACR50, % of responders ([2]; Year 2): 21% | ACR70, % of responders ([2]; Year 2): 12% | patients who increased injectable medication to weekly [2]: 20% | ACR70 ([3]; 2 years, completers, observed data): 43% | ACR20 [3, 6]: 79.3% | ACR50 [3, 6]: 51.6% | ACR70 [3, 6]: 28.6% | Major Clinical Response (ACR70 for ≧6 continuous months) [3]: 27 % of patients | ACR70 ([3]; week 52 (1 year)): 28 % of patients | ACR90 ([3]; week 52 (1 year)): 13 % of patients | ACR20 [3, 7]: 63# % of patients | ACR50 [3, 7]: 46 % of patients | ACR20 ([3]; week 52 (1 year), non-responder imputation, listed as MTX alone): 63 % of patients | ACR20 ([3]; week 104 (2 years)): 56 % of patients | ACR50 ([3]; week 104 (2 years)): 43 % of patients | ACR70 ([3]; week 104 (2 years)): 28 % of patients | ACR90 ([3]; week 104 (2 years)): 13 % of patients | Erosions mean change [4, 5]: 1.7 | TSS mean change ([4]; week 52, baseline CRP 1-4 mg/dL, listed as MTX): 3.0 | TSS mean change ([4]; week 52, baseline CRP 1-4 mg/dL, listed as Mtx): 3.25 (n = 54) | Erosions mean change ([4]; week 52, baseline CRP <1 mg/dL): 1.5 | TSS mean change ([4]; week 52, baseline CRP <1 mg/dL, listed as MTX): 2.1 | TSS mean change ([4]; week 52, baseline CRP <1 mg/dL, listed as Mtx): 1.8 (n = 71) | Erosions mean change ([4]; week 52, baseline CRP >4 mg/dL): 2.1 | TSS mean change ([4]; week 52, baseline CRP >4 mg/dL, listed as MTX): 4.5 | TSS mean change ([4]; week 52, baseline CRP >4 mg/dL, listed as Mtx): 4.23 (n = 15)

adalimumab: human anti-TNF mAb (HUMIRA, Abbott Laboratories), described in U.S. Pat. No. 6,090,382 as D2E7
ACR20 ([1]; month 12): 69% | ACR50 ([1]; month 12): 48% | ACR70 ([1]; month 12): 26% | ACR20 ([1]; month 24): 63% | ACR50 ([1]; month 24): 43% | ACR70 ([1]; month 24): 28% | ACR20 ([1]; month 36): 58% | ACR50 ([1]; month 36): 42% | ACR70 ([1]; month 36): 24% and 23% | ACR20 following dosage escalation, % of all patients in arm ([2]; 1 year): 1.8% | ACR60 following dosage escalation, % of all patients in arm ([2]; 1 year): 1.6% | ACR70 following dosage escalation, % of all patients in arm ([2]; 1 year): 0 (0) % | DAS28 < 2.6 following dosage escalation, % of all patients in arm ([2]; 1 year): 0.4% | No radiographic progression, % of patients ([2]; 2 years, eow dosing): 48.8% | ACR20 following dosage escalation, % of all patients in arm ([2]; 2 years): 2.6% | ACR60 following dosage escalation, % of all patients in arm ([2]; 2 years): 0.4% | ACR70 following dosage escalation, % of all patients in arm ([2]; 2 years): 0.4% | DAS28 < 2.6 following dosage escalation, % of all patients in arm ([2]; 2 years): 0.4% | No radiographic progression, % of patients ([2]; 2 years, weekly dosing): 31.9% | ACR50, % of responders ([2]; Year 1): 17% | ACR70, % of responders ([2]; Year 1): 6% | ACR50, % of responders ([2]; Year 2): 16% | ACR70, % of responders ([2]; Year 2): 10% | patients who increased injectable medication to weekly [2]: 25% | Major Clinical Response (ACR70 for ≧6 continuous months) [3]: 25 % of patients | ACR70 ([3]; week 52 (1 year)): 26 % of patients | ACR90 ([3]; week 52 (1 year)): 8 % of patients | ACR20 [3, 7]: 54 % of patients | ACR50 [3, 7]: 42 % of patients | ACR20 ([3]; week 104 (2 years)): 50 % of patients | ACR50 ([3]; week 104 (2 years)): 37 % of patients | ACR70 ([3]; week 104 (2 years)): 28 % of patients | ACR90 ([3]; week 104 (2 years)): 9 % of patients | patients with radiographic improvement (change <−0.5 units), total sharp score ([4]; 3 years): 28% | patients with radiographic improvement, joint erosion score ([4]; 3 years): 29% | patients with radiographic improvement, joint space narrowing score ([4]; 3 years): 20% | patients with no radiographic progression, joint erosion score [4, 8]: 71% | patients with no radiographic progression, joint space narrowing score [4, 8]: 73% | patients with no radiographic progression, total sharp score [4, 8]: 62%
